Source: article PMC8361756, “Treatment of Cardiovascular Dysfunction With PDE5-Inhibitors – Temperature Dependent Effects on Transport and Metabolism of cAMP and cGMP” (Frontiers in Physiology, 2021)
Like-named read-outs stand apart in the source and are kept apart here.

Assays:
PDE3 = settings: for IC25–IC75 interval PDE3: concentration needed to increase inhibition from 25% to 75%; for IC50: read-out: IC50 PDE3, 5 μM cAMP, 30 min; for Ki: read-out: Ki PDE3-inhibition, Cheng-Prusoff from IC50
Method: (§1) The assays were performed in triplicates at three different days. […] The reaction was started by adding either a solution containing 0.016 units/μg protein of PDE3 (Abcam, Cambridge United Kingdom), or 0.022 units/μg protein of PDE5 (Sigma-Aldrich, St. Louis, MO, United States), to the Eppendorf tubes. Parallels for cAMP-metabolism included PDE3 only and parallels for cGMP-metabolism included PDE5 only. Control samples were free of drug and was either with or without PDE3 or PDE5. This was done to assure that only the relevant PDE was responsible for breakdown of the cyclic nucleotide, as no other enzyme nor cellular material was added to the incubations. The incubation time was 30 min (see Table 2). Reaction was stopped by adding methanol to the tubes. Internal standard of cGMP/GMP or cAMP/AMP (Sigma-Aldrich, St. Louis, MO, United States, Germany and Toronto Research Chemicals Inc., Toronto, ON, Canada) were added to each sample. Five samples contained only known concentrations of cGMP/GMP or cAMP/AMP and served as calibrators. Samples were analyzed for cGMP/GMP and cAMP/AMP content, using MS.

PDE5 = PDE5 (Homo sapiens, UniProt O76074); settings: concentration needed to increase inhibition from 25% to 75%
Method: as §1

cGMP-efflux (ABCC5) = cGMP-efflux (ABCC5) (Homo sapiens, UniProt O15440); assay type: biochemical; settings: for IC25–IC75 interval cGMP-efflux: concentration needed to increase inhibition from 25% to 75%
Method: (§2) Cellular extrusion was determined using the inside-out vesicle (IOV) method where erythrocytes from healthy, human donors were sampled. […] The erythrocytes were separated from plasma by centrifugation and washed. […] The membrane vesiculation was initiated by adding […] buffer to the cell suspension. After centrifugation, the suspension was forced through a syringe needle to enhance homogenization of the membranes. IOVs were separated from right side out vesicles (ROV) and unsealed erythrocyte membranes (ghosts) by ultracentrifugation overnight using a density gradient. The uppermost band was collected, washed, and resuspended. […] Batches of IOVs used in the parallels were made eight times, including blood from a total of 35 healthy donors.
(§3) The incubation solutions also included radioactive labeled [^3H]-cGMP and [^3H]-cAMP (Perkin Elmer, Boston, MA, United States), at a concentration of, respectively, 2 μM and 20 μM. […] Incubation time of 60 min was chosen to ensure sufficient quality of the samples for each parallel (Table 2). The transport was stopped by adding ice cold buffer. The IOVs were then filtered through a nitrocellulose membrane (Bio-Rad Laboratories, Feldkirchen, Germany), and the membrane was dried. The dried membranes were later added scintillation fluid and radioactivity was measured using a Packard TopCount NXT (Packard, Downers Grove, IL, United States).
(§4) Experiments determined total ATP-dependent cellular efflux of cGMP or cAMP from IOVs.

cAMP-efflux (ABCC4) = target: T1, cAMP-efflux (ABCC4) (Homo sapiens, UniProt O15439); assay: biochemical; assay type: biochemical; settings: for Inhibition of cAMP-efflux: 1.00 nM to 1.00 mM; for Inhibition of cAMP-efflux / IC50: 60 min, IOV; for IC25–IC75 interval cAMP-efflux: concentration needed to increase inhibition from 25% to 75%; for IC50: 20 μM [3H]-cAMP; for Ki: Cheng-Prusoff from IC50
T1 construct: from tissue; host or cells: human erythrocyte membranes (inside-out vesicles), pooled donors
T1 sequence (O15439 1-1325): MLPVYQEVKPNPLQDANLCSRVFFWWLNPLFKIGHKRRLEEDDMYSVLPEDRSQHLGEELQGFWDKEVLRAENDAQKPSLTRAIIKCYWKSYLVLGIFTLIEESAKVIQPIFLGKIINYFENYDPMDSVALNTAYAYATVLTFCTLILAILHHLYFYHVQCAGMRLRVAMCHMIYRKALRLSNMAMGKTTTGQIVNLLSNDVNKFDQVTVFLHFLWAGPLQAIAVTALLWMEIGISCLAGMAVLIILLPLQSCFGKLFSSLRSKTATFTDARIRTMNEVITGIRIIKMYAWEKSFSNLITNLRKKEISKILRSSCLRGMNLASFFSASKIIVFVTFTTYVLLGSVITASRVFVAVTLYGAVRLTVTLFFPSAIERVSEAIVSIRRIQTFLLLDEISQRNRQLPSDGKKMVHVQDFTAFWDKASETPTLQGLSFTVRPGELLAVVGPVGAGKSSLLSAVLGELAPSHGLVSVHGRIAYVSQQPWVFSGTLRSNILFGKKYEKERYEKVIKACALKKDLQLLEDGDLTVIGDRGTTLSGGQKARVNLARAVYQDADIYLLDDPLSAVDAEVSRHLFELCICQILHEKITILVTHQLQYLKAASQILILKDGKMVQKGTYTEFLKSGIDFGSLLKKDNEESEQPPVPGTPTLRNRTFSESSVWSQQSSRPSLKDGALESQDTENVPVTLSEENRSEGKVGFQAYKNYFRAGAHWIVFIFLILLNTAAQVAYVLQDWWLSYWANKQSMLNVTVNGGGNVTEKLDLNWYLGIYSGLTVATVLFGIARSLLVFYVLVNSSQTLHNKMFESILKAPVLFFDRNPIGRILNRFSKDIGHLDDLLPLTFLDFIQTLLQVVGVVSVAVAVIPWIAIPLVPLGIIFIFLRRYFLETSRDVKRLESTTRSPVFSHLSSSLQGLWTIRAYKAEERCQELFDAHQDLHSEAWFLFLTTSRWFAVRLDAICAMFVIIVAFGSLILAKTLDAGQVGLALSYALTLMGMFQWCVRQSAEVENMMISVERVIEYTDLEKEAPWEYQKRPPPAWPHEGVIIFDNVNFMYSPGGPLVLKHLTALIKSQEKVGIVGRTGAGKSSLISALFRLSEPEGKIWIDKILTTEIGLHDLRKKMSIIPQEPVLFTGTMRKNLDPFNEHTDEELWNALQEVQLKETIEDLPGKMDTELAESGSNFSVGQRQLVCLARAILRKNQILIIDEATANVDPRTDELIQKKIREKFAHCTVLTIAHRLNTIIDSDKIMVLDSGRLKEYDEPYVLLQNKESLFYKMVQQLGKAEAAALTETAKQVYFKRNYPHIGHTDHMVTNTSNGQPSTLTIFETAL
Method: as §2, §3, §4

[1] = ref Walker (1999); cited from earlier work

Chain of cGMP-efflux (ABCC5) (O15440 whole entry): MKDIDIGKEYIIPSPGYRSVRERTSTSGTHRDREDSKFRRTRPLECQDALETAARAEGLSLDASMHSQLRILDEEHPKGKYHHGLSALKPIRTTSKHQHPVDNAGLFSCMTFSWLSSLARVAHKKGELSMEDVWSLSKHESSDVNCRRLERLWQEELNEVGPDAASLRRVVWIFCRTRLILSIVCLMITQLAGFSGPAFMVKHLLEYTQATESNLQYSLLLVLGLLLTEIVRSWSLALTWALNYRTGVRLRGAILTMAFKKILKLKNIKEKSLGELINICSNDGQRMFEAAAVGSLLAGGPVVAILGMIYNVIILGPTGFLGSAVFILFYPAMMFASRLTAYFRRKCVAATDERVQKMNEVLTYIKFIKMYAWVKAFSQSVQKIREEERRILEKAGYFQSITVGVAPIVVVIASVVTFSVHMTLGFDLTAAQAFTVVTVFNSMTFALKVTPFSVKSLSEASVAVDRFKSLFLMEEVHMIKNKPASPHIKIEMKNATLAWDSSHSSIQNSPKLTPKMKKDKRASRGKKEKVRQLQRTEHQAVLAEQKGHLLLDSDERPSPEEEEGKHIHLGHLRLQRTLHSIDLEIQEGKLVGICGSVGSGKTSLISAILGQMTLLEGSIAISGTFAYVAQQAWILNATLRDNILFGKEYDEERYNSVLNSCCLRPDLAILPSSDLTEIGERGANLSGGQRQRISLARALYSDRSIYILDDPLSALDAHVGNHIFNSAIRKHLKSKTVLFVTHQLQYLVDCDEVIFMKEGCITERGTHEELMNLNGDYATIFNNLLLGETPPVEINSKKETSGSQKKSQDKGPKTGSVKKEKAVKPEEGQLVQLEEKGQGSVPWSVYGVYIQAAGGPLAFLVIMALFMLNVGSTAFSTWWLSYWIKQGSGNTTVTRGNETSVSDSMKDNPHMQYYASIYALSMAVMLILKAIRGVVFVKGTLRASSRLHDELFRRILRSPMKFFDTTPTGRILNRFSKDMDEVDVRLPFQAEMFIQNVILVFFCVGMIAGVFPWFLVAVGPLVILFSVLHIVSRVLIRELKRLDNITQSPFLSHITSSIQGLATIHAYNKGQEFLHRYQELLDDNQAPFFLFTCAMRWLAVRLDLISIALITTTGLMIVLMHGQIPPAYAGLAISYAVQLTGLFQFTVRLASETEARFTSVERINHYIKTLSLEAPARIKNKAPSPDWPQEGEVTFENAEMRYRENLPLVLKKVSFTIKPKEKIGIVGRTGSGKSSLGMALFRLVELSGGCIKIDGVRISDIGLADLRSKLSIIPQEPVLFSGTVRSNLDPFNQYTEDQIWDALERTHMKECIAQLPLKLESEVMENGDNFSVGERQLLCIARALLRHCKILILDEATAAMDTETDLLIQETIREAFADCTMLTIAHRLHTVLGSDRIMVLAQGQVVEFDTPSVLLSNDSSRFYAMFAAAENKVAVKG

## CCCc1nn(C)c2c(=O)[nH]c(-c3cc(S(=O)(=O)N4CCN(C)CC4)ccc3OCC)nc12 [Sildenafil]
PDE3; 20°C
  IC25–IC75 interval PDE3: […]
  IC50: […]
PDE3; 20°C, listed as sildenafil
  IC25–IC75 interval PDE3: […]
PDE3; 24°C
  IC25–IC75 interval PDE3: […]
  IC50: […]
PDE3; 28°C
  IC25–IC75 interval PDE3: […]
  IC50: […]
PDE3; 32°C
  IC25–IC75 interval PDE3: […]
  IC50: […]
PDE3; 34°C
  IC25–IC75 interval PDE3: […]
  IC50: […]
PDE3; 37°C
  IC25–IC75 interval PDE3: […]
  IC50: […]
PDE5; 20°C
  IC25–IC75 interval PDE5: 0.132 ± 0.048 µM
PDE5; 20°C, listed as sildenafil
  IC25–IC75 interval PDE5: 0.132 ± 0.048 µM
PDE5; 24°C
  IC25–IC75 interval PDE5: 0.098 ± 0.012 µM
PDE5; 24°C, listed as sildenafil
  IC25–IC75 interval PDE5: 0.098 ± 0.012 µM
PDE5; 28°C
  IC25–IC75 interval PDE5: 0.083 ± 0.008 µM
PDE5; 32°C
  IC25–IC75 interval PDE5: 0.060 ± 0.006 µM
PDE5; 34°C
  IC25–IC75 interval PDE5: 0.055 ± 0.004 µM
PDE5; 37°C
  IC25–IC75 interval PDE5: 0.038 ± 0.000 µM
cGMP-efflux (ABCC5); 20°C
  IC25–IC75 interval cGMP-efflux: 19.2 ± 8.45 µM
cGMP-efflux (ABCC5); 24°C
  IC25–IC75 interval cGMP-efflux: 11.4 ± 4.73 µM
cGMP-efflux (ABCC5); 28°C
  IC25–IC75 interval cGMP-efflux: 12.0 ± 1.96 µM
cGMP-efflux (ABCC5); 32°C
  IC25–IC75 interval cGMP-efflux: 9.76 ± 3.99 µM
cGMP-efflux (ABCC5); 34°C
  IC25–IC75 interval cGMP-efflux: 13.5 ± 1.74 µM
cGMP-efflux (ABCC5); 37°C
  IC25–IC75 interval cGMP-efflux: 23.6 ± 9.08 µM
cAMP-efflux (ABCC4); 20°C
  Inhibition of cAMP-efflux: neither of the drugs were able to inhibit cAMP-efflux
cAMP-efflux (ABCC4); 24°C
  Inhibition of cAMP-efflux: neither of the drugs were able to inhibit cAMP-efflux
cAMP-efflux (ABCC4); 28°C
  IC25–IC75 interval cAMP-efflux: 13.8 ± 3.85 µM
cAMP-efflux (ABCC4); 32°C
  IC25–IC75 interval cAMP-efflux: 20.0 ± 4.27 µM
cAMP-efflux (ABCC4); 34°C
  IC25–IC75 interval cAMP-efflux: 19.8 ± 1.82 µM
cAMP-efflux (ABCC4); 37°C
  IC25–IC75 interval cAMP-efflux: 27.1 ± 9.36 µM
[1]
  Protein binding: 94–96%

## CCCc1nc(C)c2c(=O)[nH]c(-c3cc(S(=O)(=O)N4CCN(CC)CC4)ccc3OCC)nn12 [Vardenafil]
PDE3; 20°C
  IC25–IC75 interval PDE3: 709 ± 105 µM
  IC50: 73.4 ± 26.3 µM
  Ki: 3.36 ± 1.21 µM
PDE3; 24°C
  IC25–IC75 interval PDE3: 148 ± 31.9 µM
  IC50: 55.5 ± 4.75 µM
  Ki: 2.54 ± 0.218 µM
PDE3; 28°C
  IC25–IC75 interval PDE3: 128 ± 35.9 µM
  IC50: 32.7 ± 11 µM
  Ki: 1.5 ± 0.505 µM
PDE3; 32°C
  IC25–IC75 interval PDE3: 107 ± 27.0 µM
  IC50: 40.5 ± 3.78 µM
  Ki: 1.85 ± 0.173 µM
PDE3; 34°C
  IC25–IC75 interval PDE3: 72.1 ± 3.24 µM
  IC50: 24.9 ± 5.73 µM
  Ki: 1.14 ± 0.263 µM
PDE3; 37°C
  IC25–IC75 interval PDE3: 61.0 ± 14.3 µM
  IC50: 16.5 ± 6.08 µM
  Ki: 0.757 ± 0.276 µM
PDE5; 20°C
  IC25–IC75 interval PDE5: 0.103 ± 0.027 µM
PDE5; 24°C
  IC25–IC75 interval PDE5: 0.074 ± 0.005 µM
PDE5; 28°C
  IC25–IC75 interval PDE5: 0.049 ± 0.016 µM
PDE5; 32°C
  IC25–IC75 interval PDE5: 0.062 ± 0.016 µM
PDE5; 34°C
  IC25–IC75 interval PDE5: 0.028 ± 0.012 µM
PDE5; 37°C
  IC25–IC75 interval PDE5: 0.059 ± 0.029 µM
cGMP-efflux (ABCC5); 20°C
  IC25–IC75 interval cGMP-efflux: 28.1 ± 14.6 µM
cGMP-efflux (ABCC5); 24°C
  IC25–IC75 interval cGMP-efflux: 13.0 ± 1.74 µM
cGMP-efflux (ABCC5); 28°C
  IC25–IC75 interval cGMP-efflux: 10.6 ± 2.75 µM
cGMP-efflux (ABCC5); 32°C
  IC25–IC75 interval cGMP-efflux: 18.0 ± 4.12 µM
cGMP-efflux (ABCC5); 34°C
  IC25–IC75 interval cGMP-efflux: 19.2 ± 3.16 µM
cGMP-efflux (ABCC5); 37°C
  IC25–IC75 interval cGMP-efflux: 12.6 ± 3.89 µM
cGMP-efflux (ABCC5); not told
  Linear regression equation, IC50 inhibition of cGMP-efflux vs temperature: y = 9.64 − 0.098x
cAMP-efflux (ABCC4); 20°C
  Inhibition of cAMP-efflux: neither of the drugs were able to inhibit cAMP-efflux
cAMP-efflux (ABCC4); 24°C
  Inhibition of cAMP-efflux: neither of the drugs were able to inhibit cAMP-efflux
cAMP-efflux (ABCC4); 28°C
  IC50: 9.63 ± 5.79 µM
  Ki: 5.84 ± 3.51 µM
  IC25–IC75 interval cAMP-efflux: 17.3 ± 6.59 µM
cAMP-efflux (ABCC4); 32°C
  IC50: 13 ± 1.69 µM
  Ki: 7.86 ± 1.02 µM
  IC25–IC75 interval cAMP-efflux: 27.3 ± 6.19 µM
cAMP-efflux (ABCC4); 34°C
  IC50: 5.82 ± 0.685 µM
  Ki: 3.53 ± 0.415 µM
  IC25–IC75 interval cAMP-efflux: 19.9 ± 0.967 µM
cAMP-efflux (ABCC4); 37°C
  IC50: 5.85 ± 0.51 µM
  Ki: 3.55 ± 0.311 µM
  IC25–IC75 interval cAMP-efflux: 30.9 ± 6.82 µM
cAMP-efflux (ABCC4); not told
  Linear regression equation, IC50 inhibition of cAMP-efflux vs temperature: y = 26.4 − 0.545x
